The text below walks through data of ChEMBL document CHEMBL1909046, “DrugMatrix in vitro pharmacology data”.

SMILES strings stand for the structures. pIC50, pKi: −log10 of the molar value.

The nature of test [1]: DRUGMATRIX: Glutamate, AMPA radioligand binding (ligand: [3H] AMPA). Format: cell membranes, Rattus norvegicus, Wistar, Cerebral cortex, Membrane. The note with it: Not Active = under 50% inhibition at 10 µM.
Test [2] in a line: DRUGMATRIX: beta-Lactamase enzyme inhibition (substrate: Nitrocefin). Further details: species or system Bacillus cereus. To be noted: Not Active = under 50% inhibition at 10 µM.
The target of test [3] is T1, 3-hydroxy-3-methylglutaryl-coenzyme A reductase (Homo sapiens, UniProt P04035).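 Also: enzyme inhibition assay of HMG-CoA reductase using radiolabeled [14C]HMG-CoA as substrate; in other assays of this panel Not Active means under 50% inhibition at 10 µM.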
T1 sequence (P04035 whole entry): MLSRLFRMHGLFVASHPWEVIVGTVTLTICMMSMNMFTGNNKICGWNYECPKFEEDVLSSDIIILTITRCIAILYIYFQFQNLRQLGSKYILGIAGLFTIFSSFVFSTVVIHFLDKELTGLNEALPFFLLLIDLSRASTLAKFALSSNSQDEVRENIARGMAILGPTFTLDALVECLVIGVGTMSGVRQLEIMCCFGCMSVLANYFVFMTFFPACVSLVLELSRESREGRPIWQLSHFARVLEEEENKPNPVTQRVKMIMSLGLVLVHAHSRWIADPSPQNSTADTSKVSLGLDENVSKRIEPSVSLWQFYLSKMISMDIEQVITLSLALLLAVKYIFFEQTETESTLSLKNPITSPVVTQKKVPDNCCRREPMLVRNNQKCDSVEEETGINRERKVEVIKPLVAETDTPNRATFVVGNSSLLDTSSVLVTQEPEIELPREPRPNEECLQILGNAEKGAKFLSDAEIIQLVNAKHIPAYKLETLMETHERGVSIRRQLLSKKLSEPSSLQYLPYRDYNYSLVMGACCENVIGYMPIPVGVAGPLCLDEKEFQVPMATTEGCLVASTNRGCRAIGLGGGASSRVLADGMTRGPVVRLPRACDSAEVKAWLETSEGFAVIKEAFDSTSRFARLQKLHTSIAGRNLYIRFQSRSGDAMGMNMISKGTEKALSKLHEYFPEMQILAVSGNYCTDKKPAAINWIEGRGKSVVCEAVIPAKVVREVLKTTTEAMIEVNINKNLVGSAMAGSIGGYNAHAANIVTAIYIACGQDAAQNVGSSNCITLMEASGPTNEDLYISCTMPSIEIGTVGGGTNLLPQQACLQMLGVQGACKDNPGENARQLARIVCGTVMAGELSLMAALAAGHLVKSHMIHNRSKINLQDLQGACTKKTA
On the set-up: species or system Escherichia coli.

For a further test, the target named is T2, Interstitial collagenase (Homo sapiens, UniProt P03956).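 Also: MMP-1 enzyme inhibition assay using a peptide substrate; in other assays of this panel Not Active means under 50% inhibition at 10 µM.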
T2 sequence (P03956 whole entry): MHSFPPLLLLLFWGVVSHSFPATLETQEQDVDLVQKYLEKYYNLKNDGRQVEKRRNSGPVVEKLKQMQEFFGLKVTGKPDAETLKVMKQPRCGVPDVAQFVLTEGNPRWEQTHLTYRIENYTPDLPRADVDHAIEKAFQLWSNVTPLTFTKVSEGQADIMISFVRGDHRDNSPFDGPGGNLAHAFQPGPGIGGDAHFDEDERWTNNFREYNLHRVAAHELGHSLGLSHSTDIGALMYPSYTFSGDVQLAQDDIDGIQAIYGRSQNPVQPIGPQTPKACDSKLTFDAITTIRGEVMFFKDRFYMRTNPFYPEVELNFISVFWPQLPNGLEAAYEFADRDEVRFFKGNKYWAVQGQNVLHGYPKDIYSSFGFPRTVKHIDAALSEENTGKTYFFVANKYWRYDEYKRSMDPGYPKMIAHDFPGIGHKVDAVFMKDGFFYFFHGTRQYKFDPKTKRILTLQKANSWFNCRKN
Briefly: biochemical. Format: tissue-based, Rheumatoid synovial fibroblasts.

The target in test [4] is T3, 5-hydroxytryptamine receptor 2C (Homo sapiens, UniProt P28335).
T3 sequence (P28335 whole entry): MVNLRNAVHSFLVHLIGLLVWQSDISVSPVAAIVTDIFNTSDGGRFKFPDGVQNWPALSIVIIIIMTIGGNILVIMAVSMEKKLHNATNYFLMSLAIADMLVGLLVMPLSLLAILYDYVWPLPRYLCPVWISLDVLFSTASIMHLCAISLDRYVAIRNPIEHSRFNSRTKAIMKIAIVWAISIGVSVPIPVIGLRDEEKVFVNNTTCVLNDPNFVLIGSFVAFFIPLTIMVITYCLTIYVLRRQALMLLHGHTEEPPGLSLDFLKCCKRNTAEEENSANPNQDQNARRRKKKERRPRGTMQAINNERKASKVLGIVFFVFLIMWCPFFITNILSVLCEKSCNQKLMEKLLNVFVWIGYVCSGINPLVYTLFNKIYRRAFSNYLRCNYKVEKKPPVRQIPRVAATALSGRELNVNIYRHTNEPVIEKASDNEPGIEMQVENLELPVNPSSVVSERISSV
Briefly: DRUGMATRIX: Serotonin (5-Hydroxytryptamine) 5-HT2C radioligand binding (ligand: [3H] Mesulergine). Format: cell membranes, CHO-K1, Membrane. The note with it: Not Active = under 50% inhibition at 10 µM; for IC50: cho-k1.

Test [5] addresses T4, C-C chemokine receptor type 4 (Homo sapiens, UniProt P51679).
T4 sequence (P51679 whole entry): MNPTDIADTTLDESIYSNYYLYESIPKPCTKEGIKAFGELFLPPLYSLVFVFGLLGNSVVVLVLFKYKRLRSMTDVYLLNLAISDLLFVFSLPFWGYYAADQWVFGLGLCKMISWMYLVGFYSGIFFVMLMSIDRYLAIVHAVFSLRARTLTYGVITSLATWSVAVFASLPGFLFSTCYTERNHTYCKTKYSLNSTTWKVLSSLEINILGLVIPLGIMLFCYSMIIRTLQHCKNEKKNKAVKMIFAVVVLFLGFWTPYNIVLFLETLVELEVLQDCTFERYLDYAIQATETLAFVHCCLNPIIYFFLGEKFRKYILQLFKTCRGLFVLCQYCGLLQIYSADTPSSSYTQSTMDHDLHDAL
Format: cell membranes, Membrane. The note with it: chem-1.

Test [6] can be described thus: DRUGMATRIX: GABAA, Flunitrazepam, Central radioligand binding (ligand: [3H] Flunitrazepam). It is filed as cell membranes, Rattus norvegicus, Wistar, Brain, Membrane. To be noted: Not Active = under 50% inhibition at 10 µM.

For orientation: pIC50 means −log10 of the IC50, conventionally taken in molar units. One may read the pKi as the Ki on a negative log10 scale, so that one unit is a factor of ten. On to `CN(C)CCC=C1c2ccccc2CCc2ccccc21` [AMITRIPTYLINE], for which the IC50 result (in test [1]; in test [2]; in test [3]; against Interstitial collagenase; in test [5]; in test [6]) was “Not Active” throughout. Besides, the Ki entry in test [1], in test [2] and in test [6] was “Not Active” each time. Further, the pIC50 in test [4] (read-out: IC50) is 8.22. Besides, the negative-log Ki (pKi) in test [4] (read-out: Ki) is 8.50.
As to `CC(=O)Oc1ccccc1C(=O)O` [ASPIRIN], the IC50 result (in test [1]; in test [2]; in test [3]; on Interstitial collagenase; in test [4]; in test [5]) was “Not Active” throughout. In test [6], the IC50 result is given as “Not Active”. Besides, the Ki entry in test [1], in test [2] and in test [6] was “Not Active” in each case.
`CC(=O)OC[C@H]1O[C@@H](n2ncc(=O)[nH]c2=O)[C@H](OC(C)=O)[C@@H]1OC(C)=O` [AZARIBINE]: the IC50 entry (in test [1]; in test [2]; in test [3]; against Interstitial collagenase; in test [4]; in test [5]) was “Not Active” in each case. Also, the IC50 result in test [6] was “Not Active”. Also, the Ki entry in test [1], in test [2] and in test [6] was “Not Active” in each case.
For the compound `C[C@H]1[C@H](NC(=O)/C(=N\OC(C)(C)C(=O)O)c2csc(N)n2)C(=O)N1S(=O)(=O)O` [AZTREONAM], the IC50 entry (in test [1]; in test [2]; in test [3]; at Interstitial collagenase; in test [4]; in test [5]) was “Not Active” each time. Besides, in test [6], the IC50 result is reported as “Not Active”. Also, the Ki result in test [1], in test [2] and in test [6] was “Not Active” each time.
Regarding `O=C(O)CCNC(=O)c1ccc(/N=N/c2ccc(O)c(C(=O)O)c2)cc1` [BALSALAZIDE], the IC50 entry (in test [1]; in test [2]; in test [3]; against Interstitial collagenase; in test [4]; in test [5]) was “Not Active” each time. Also, the IC50 result in test [6] was “Not Active”. In addition, the Ki entry in test [1], in test [2] and in test [6] was “Not Active” each time.
For the compound `COc1cc(OC)c(C(=O)CCCN2CCCC2)c(OC)c1` [BUFLOMEDIL], the IC50 result (in test [1]; in test [2]; in test [3]; against Interstitial collagenase; in test [4]; in test [5]) was “Not Active” throughout. In test [6], the IC50 entry is on record as “Not Active”. In addition, the Ki entry in test [1], in test [2] and in test [6] was “Not Active” throughout.
With `Cn1c(=O)c2c(ncn2C)n(C)c1=O` [CAFFEINE], the IC50 entry (in test [1]; in test [2]; in test [3]; at Interstitial collagenase; in test [4]; in test [5]) was “Not Active” throughout. In addition, in test [6], the IC50 entry is recorded as “Not Active”. The Ki result in test [1], in test [2] and in test [6] was “Not Active” in each case.
For the compound `ClC(Cl)(Cl)Cl` [CARBON TETRACHLORIDE], the IC50 entry (in test [1]; in test [2]; in test [3]; against Interstitial collagenase; in test [4]; in test [5]) was “Not Active” in each case. In addition, the IC50 result in test [6] was “Not Active”. The Ki entry in test [1], in test [2] and in test [6] was “Not Active” in each case.
With `CO/N=C(\C(=O)N[C@@H]1C(=O)N2C(C(=O)O)=C(COC(C)=O)CS[C@H]12)c1csc(N)n1` [CEFOTAXIME], the IC50 entry (in test [1]; in test [2]; in test [3]; on Interstitial collagenase; in test [4]; in test [5]) was “Not Active” each time. Also, in test [6], the IC50 result was “Not Active”. Moreover, the Ki result in test [1], in test [2] and in test [6] was “Not Active” each time.
Take `CNC1=Nc2ccc(Cl)cc2C(c2ccccc2)=[N+]([O-])C1` [CHLORDIAZEPOXIDE]: the IC50 entry (in test [1]; in test [2]; in test [3]; against Interstitial collagenase; in test [4]; in test [5]) was “Not Active” throughout. Further, the Ki entry in test [1] and in test [2] was “Not Active” each time. For the same compound, in test [6] (read-out: IC50), the pIC50 was 5.84. Besides, the pKi in test [6] (read-out: Ki) was 5.93.
`Cc1cc(O)cc(C)c1Cl` [CHLOROXYLENOL]: the IC50 result (in test [1]; in test [2]; in test [3]; against Interstitial collagenase; in test [4]; in test [5]) was “Not Active” in each case. For the same compound, the IC50 result in test [6] is “Not Active”. Moreover, the Ki result in test [1], in test [2] and in test [6] was “Not Active” throughout.
Turning to `CCCNC(=O)NS(=O)(=O)c1ccc(Cl)cc1` [CHLORPROPAMIDE], the IC50 result (in test [1]; in test [2]; in test [3]; against Interstitial collagenase; in test [4]; in test [5]) was “Not Active” in each case. Besides, the IC50 entry in test [6] is recorded as “Not Active”. In addition, the Ki entry in test [1], in test [2] and in test [6] was “Not Active” throughout.
In the case of `NS(=O)(=O)c1cc(C2(O)NC(=O)c3ccccc32)ccc1Cl` (stereo unspecified) [CHLORTHALIDONE], the IC50 entry (in test [1]; in test [2]; in test [3]; against Interstitial collagenase; in test [4]; in test [5]) was “Not Active” in each case. Besides, the IC50 result in test [6] is “Not Active”. Besides, the Ki result in test [1], in test [2] and in test [6] was “Not Active” in each case.
